Measurements reported in ChEMBL document CHEMBL4765295, “Synthesis, pharmacological profile and 2D-QSAR studies of curcumin-amino acid conjugates as potential drug candidates” (Eur J Med Chem, 2020).
Where “and” joins values, the source holds several entries; their conditions need not be identical. Identical values can stand only once.

Tests used:
Rattus norvegicus [1] = assay: Anti-inflammatory activity in Wistar rat assessed as inhibition of carrageenan-induced paw edema at 10 mg/kg, ip pretreated for 1 hr followed by carrageenan challenge and measured after 4 hr relative to indomethacin; assay type: functional; conditions: time 5 hrs
PC-3 = assay: Antiproliferative activity against human PC3 cells assessed as inhibition of cell growth after 72 hrs by MTT assay; assay type: functional, cell-based; conditions: PC-3, 72 h
Streptococcus pyogenes = assay: Antibacterial activity against Streptococcus pyogenes ATCC 19615 incubated for 18 hrs by agar dilution method; assay type: functional
Staphylococcus aureus = assay: Antibacterial activity against Staphylococcus aureus ATCC 25923 incubated for 18 hrs by agar dilution method; assay type: functional
A549 = assay: Antiproliferative activity against human A549 cells assessed as inhibition of cell growth after 72 hrs by MTT assay; assay type: functional, cell-based; conditions: A549, 72 h
Splenocyte [2] = assay: Immunomodulatory activity in Swiss albino mouse splenocytes assessed as cell viability at 10 uM by measuring inhibition of stimulation index incubated for 72 hrs in presence of mitogenic stimulus phytohaemagglutinin by MTT assay relative to indomethacin; assay type: functional; conditions: read-out: Activity
Rattus norvegicus [3] = assay: Anti-inflammatory activity in Wistar rat assessed as inhibition of carrageenan-induced paw edema at 10 mg/kg, ip pretreated for 1 hr followed by carrageenan challenge and measured after 2 hr relative to control (reference value: 0.00 +/-0.03 %); assay type: functional; conditions: time 3 hrs
Rattus norvegicus [4] = assay: Antiinflammatory activity in Wistar rat model of carrageenan-induced paw edema assessed as reduction in thickness of paw edema at 10 mg/kg, ip pretreated for 1 hr followed by carrageenan challenge and measured after 2 hrs (reference value: 2.06 +/-0.09 mm); assay type: functional; conditions: time 3 hrs
Rattus norvegicus [5] = assay: Antiinflammatory activity in Wistar rat model of carrageenan-induced paw edema assessed as reduction in thickness of paw edema at 10 mg/kg, ip pretreated for 1 hr followed by carrageenan challenge and measured after 24 hrs (reference value: 0.83 +/-0.08 mm); assay type: functional; conditions: time 25 hrs
Rattus norvegicus [6] = assay: Anti-inflammatory activity in Wistar rat assessed as inhibition of carrageenan-induced paw edema at 10 mg/kg, ip pretreated for 1 hr followed by carrageenan challenge and measured after 4 hr relative to control (reference value: 0.00 +/-0.4 %); assay type: functional; conditions: time 5 hrs
Peritoneal macrophage [7] = assay: Antiinflammatory activity in […] mouse Peritoneal macrophages assessed as reduction in LPS-induced NO production by measuring reduction in stimulation index at 10 uM preincubated for 1 hr followed by LPS stimulation measured after 24 hrs by Griess method (reference value: 27.31 +/- 2.56 uM); assay type: functional; conditions: time 25 hrs
Peritoneal macrophage [8] = assay: Antiinflammatory activity in […] mouse Peritoneal macrophages assessed as inhibition of LPS-induced NO production at 10 uM preincubated for 1 hr followed by LPS stimulation measured after 24 hrs by Griess method relative to control (reference value: 0.0 %); assay type: functional; parameters: scale not given: the % may be the effect or the level left; conditions: time 25 hrs
Rattus norvegicus [9] = assay: Antiinflammatory activity in Wistar rat model of carrageenan-induced paw edema assessed as reduction in thickness of paw edema at 10 mg/kg, ip pretreated for 1 hr followed by carrageenan challenge and measured after 1 hr (reference value: 2.41 +/-0.05 mm); assay type: functional; conditions: time 1 hr after carrageenan
Splenocyte [10] = assay: Immunomodulatory activity in Swiss albino mouse splenocytes assessed as cell viability at 10 uM by measuring stimulation index incubated for 72 hrs in presence of mitogenic stimulus phytohaemagglutinin by MTT assay (reference value: 1.00 +/- 0.24); assay type: functional
MCF7 = assay: Antiproliferative activity against human MCF7 cells assessed as inhibition of cell growth after 72 hrs by MTT assay; assay type: functional, cell-based; conditions: MCF7, 72 h
Pseudomonas aeruginosa = assay: Antibacterial activity against Pseudomonas aeruginosa ATCC 27853 incubated for 18 hrs by agar dilution assay; assay type: functional
Rattus norvegicus [11] = assay: Anti-inflammatory activity in Wistar rat assessed as inhibition of carrageenan-induced paw edema at 10 mg/kg, ip pretreated for 1 hr followed by carrageenan challenge and measured after 24 hr relative to control (reference value: 0.00 +/-0.3 %); assay type: functional; conditions: time 25 hrs
Rattus norvegicus [12] = assay: Anti-inflammatory activity in Wistar rat assessed as inhibition of carrageenan-induced paw edema at 10 mg/kg, ip pretreated for 1 hr followed by carrageenan challenge and measured after 1 hr relative to control (reference value: 0.00 +/-0.02 %); assay type: functional; conditions: time 2 hrs
Candida albicans = assay: Antifungal activity against Candida albicans incubated for 18 to 24 hrs by CLSI method; assay type: functional; conditions: time 18-24 hrs
Rattus norvegicus [13] = assay: Antiinflammatory activity in Wistar rat model of carrageenan-induced paw edema assessed as reduction in thickness of paw edema at 10 mg/kg, ip pretreated for 1 hr followed by carrageenan challenge and measured after 4 hrs (reference value: 1.40 +/-0.10 mm); assay type: functional; conditions: time 5 hrs
Salmonella typhimurium = assay: Antibacterial activity against Salmonella typhimurium ATCC 19430 incubated for 18 hrs by agar dilution assay; assay type: functional, Salmonella enterica subsp. enterica serovar Typhimurium; conditions: Salmonella enterica
Rattus norvegicus [14] = assay: Antiinflammatory activity in Wistar rat model of carrageenan-induced paw edema assessed as reduction in thickness of paw edema at 10 mg/kg, ip pretreated for 1 hr followed by carrageenan challenge and measured after 3 hrs (reference value: 1.79 +/-0.07 mm); assay type: functional; conditions: time 4 hrs
Rattus norvegicus [15] = assay: Anti-inflammatory activity in Wistar rat assessed as inhibition of carrageenan-induced paw edema at 10 mg/kg, ip pretreated for 1 hr followed by carrageenan challenge and measured after 3 hr relative to control (reference value: 0.00 +/-0.1 %); assay type: functional; conditions: time 4 hrs

SMILES: COc1cc(/C=C/C(=O)/C=C(O)/C=C/c2ccc(OC(=O)[C@@H](N)Cc3ccccc3)c(OC)c2)ccc1OC(=O)[C@@H](N)Cc1ccccc1.Cl.Cl
- inhibition in vivo at 10 mg/kg (Rattus norvegicus [1]): 97%
- IC50 (PC-3): 74.4 µM
- MIC (Streptococcus pyogenes): 0.5 µg/mL and 0.68 µM
- MIC (Staphylococcus aureus): 0.25 µg/mL and 0.34 µM
- IC50 (A549): 33.5 µM
- viability at 10 µM (Splenocyte [2]): 85.6%
- inhibition in vivo at 10 mg/kg (Rattus norvegicus [3]): 51%
- Activity (Rattus norvegicus [4]): 1.01 mm
- Activity (Rattus norvegicus [5]): 0.66 mm
- inhibition in vivo at 10 mg/kg (Rattus norvegicus [6]): 84%
- Activity (Peritoneal macrophage [7]): 16.46 µM
- Activity (Peritoneal macrophage [8]): 39.74%
- Activity (Rattus norvegicus [9]): 1.29 mm
- Activity_index (Splenocyte [10]): 1.41
- IC50 (MCF7): 11.5 µM
- MIC (Pseudomonas aeruginosa): 0.5 µg/mL and 0.68 µM
- inhibition in vivo at 10 mg/kg (Rattus norvegicus [11]): 20%
- inhibition in vivo at 10 mg/kg (Rattus norvegicus [12]): 46%
- MIC (Candida albicans): 0.5 µg/mL and 0.68 µM
- Activity (Rattus norvegicus [13]): 0.22 mm
- MIC (Salmonella typhimurium): 0.125 µg/mL and 0.17 µM
- Activity (Rattus norvegicus [14]): 0.66 mm
- inhibition in vivo at 10 mg/kg (Rattus norvegicus [15]): 63%

SMILES: COc1cc(/C=C/C(=O)/C=C(O)/C=C/c2ccc(OC(=O)[C@@H](N)C(C)C)c(OC)c2)ccc1OC(=O)[C@@H](N)C(C)C.Cl.Cl
- inhibition in vivo at 10 mg/kg (Rattus norvegicus [1]): 53%
- IC50 (PC-3): 34.6 µM
- MIC (Streptococcus pyogenes): 0.125 µg/mL and 0.195 µM
- MIC (Staphylococcus aureus): 0.25 µg/mL and 0.391 µM
- IC50 (A549): 20.4 µM
- viability at 10 µM (Splenocyte [2]): 59%
- inhibition in vivo at 10 mg/kg (Rattus norvegicus [3]): 50%
- Activity (Rattus norvegicus [4]): 1.4 mm
- Activity (Rattus norvegicus [5]): 0.71 mm
- inhibition in vivo at 10 mg/kg (Rattus norvegicus [6]): 46%
- Activity (Peritoneal macrophage [7]): 20.65 µM
- Activity (Peritoneal macrophage [8]): 24.37%
- Activity (Rattus norvegicus [9]): 0.97 mm
- Activity_index (Splenocyte [10]): 2.05
- IC50 (MCF7): 10.4 µM
- MIC (Pseudomonas aeruginosa): 0.25 µg/mL and 0.391 µM
- inhibition in vivo at 10 mg/kg (Rattus norvegicus [11]): 14%
- inhibition in vivo at 10 mg/kg (Rattus norvegicus [12]): 60%
- MIC (Candida albicans): 0.125 µg/mL and 0.195 µM
- Activity (Rattus norvegicus [13]): 0.75 mm
- MIC (Salmonella typhimurium): 0.125 µg/mL and 0.195 µM
- Activity (Rattus norvegicus [14]): 0.93 mm
- inhibition in vivo at 10 mg/kg (Rattus norvegicus [15]): 48%

SMILES: CC[C@H](C)[C@H](N)C(=O)Oc1ccc(/C=C/C(=O)/C=C(O)/C=C/c2ccc(OC(=O)[C@@H](N)[C@@H](C)CC)c(OC)c2)cc1OC.Cl.Cl
- inhibition in vivo at 10 mg/kg (Rattus norvegicus [1]): 87%
- IC50 (PC-3): 34.4 µM
- MIC (Streptococcus pyogenes): 0.5 µg/mL and 0.749 µM
- MIC (Staphylococcus aureus): 0.25 µg/mL and 0.374 µM
- IC50 (A549): 20.9 µM
- viability at 10 µM (Splenocyte [2]): 76%
- inhibition in vivo at 10 mg/kg (Rattus norvegicus [3]): 36%
- Activity (Rattus norvegicus [4]): 1.31 mm
- Activity (Rattus norvegicus [5]): 0.58 mm
- inhibition in vivo at 10 mg/kg (Rattus norvegicus [6]): 76%
- Activity (Peritoneal macrophage [7]): 17.63 µM
- Activity (Peritoneal macrophage [8]): 35.45%
- Activity (Rattus norvegicus [9]): 1.61 mm
- Activity_index (Splenocyte [10]): 1.59
- IC50 (MCF7): 10.2 µM
- MIC (Pseudomonas aeruginosa): 0.25 µg/mL and 0.374 µM
- inhibition in vivo at 10 mg/kg (Rattus norvegicus [11]): 30%
- inhibition in vivo at 10 mg/kg (Rattus norvegicus [12]): 33%
- MIC (Candida albicans): 0.125 µg/mL and 0.187 µM
- Activity (Rattus norvegicus [13]): 0.34 mm
- MIC (Salmonella typhimurium): 0.125 µg/mL and 0.187 µM
- Activity (Rattus norvegicus [14]): 0.94 mm
- inhibition in vivo at 10 mg/kg (Rattus norvegicus [15]): 47%
